Assay results as given in patent US20230192720A1, “MACROCYCLIC COMPOUNDS” (ZENO MANAGEMENT, INC., priority 2019, published 2023).

System: NCI-H929 cells
Assay: NCI-H929 cell proliferation assay (CellTiter-Glo)
Type: cell-based
Conditions: 72 h compound treatment
Method: NCI-H929 Cell Proliferation Assay
Cell proliferation was measured using the CellTiter-Glo® Luminescent Cell Viability Assay. The assay involved the addition of a single reagent (CellTiter-Glo® Reagent) directly to cells cultured in serum-supplemented medium. NCI-H929 (ATCC CRL-9068) cells were cultured according to ATCC recommendations and were seeded at 3,000 cells per well.
Each compound evaluated was prepared as a DMSO stock solution (10 mM). Compounds were tested in duplicate on each plate, with a 10-point serial dilution curve (1:3 dilution). Compound treatment ([…]) was added from the compound dilution plate to the cell plate. The highest compound concentration was 10 μM (final), with a 0.1% final DMSO concentration. Plates were then incubated at 37° C., 5% CO2. After 72 h of compound treatment, cell plates were equilibrated at rt for approximately 30 mins. An equi-volume amount of CellTiter-Glo® Reagent (40 μL) was added to each well. Plates were mixed for 2 mins on an orbital shaker to induce cell lysis and then incubated at rt for 10 mins to stabilize the luminescent signal. Luminescence was recorded using an Envision plate reader according to CellTiter-Glo protocol. IC50 of each compound was calculated using GraphPad Prism by nonlinear regression analysis.

Compound | IC50 | IC50 (Homo sapiens, NCI-H929, 72 h)
Cc1nn(C23CC(C2)C3)c2c1-c1c(Cl)ccc3c(c(C(=O)O)n(C)c13)CCCOc1cc(cc3c1NCCC3)SCc1cc(nn1C)CSC2 (atropisomer, axis not shown; (Ra)) [Example 9A, (Ra)-(+)-(Z)-2^1-(Bicyclo [1.1.1]pentan-1-yl)-1^6-chloro-1^1,2^3,6^1-trimethyl-9^1,9^2,9^3,9^4-tetrahydro-1^1H,2^1H,6^1H-10-oxa-4,8-dithia-9(6,8)-quinolina-1(7,3)-indola-2(4,5),6(3,5)-dipyrazolacyclotridecaphane-1^2-carboxylic acid] | ≥ 1000 nM | –
Cn1nc2cc1CSc1cc3c(c(c1)OCCCc1c(C(=O)O)n(C)c4c(c(Cl)ccc14)-c1c(nn4c1CCCC4)CSC2)NCCC3 (atropisomer, axis not shown; (Sa)) [Example 2B, (Sa)-(−)-(Z)-1^6-Chloro-1^1,6^1-dimethyl-2^4,2^5,2^6,2^7,9^1,9^2,9^3,9^4-octahydro-1^1H,6^1H-10-oxa-4,8-dithia-9(6,8)-quinolina-2(3,2)-pyrazolo[1,5-a]pyridina-1(7,3)-indola-6(3,5)-pyrazolacyclotridecaphane-1^2-carboxylic acid] | – | ≥ 1000 nM
Cn1nc2cc1CSc1cc3c(c(c1)OCCCc1c(C(=O)O)n(C)c4c(c(Cl)ccc14)-c1c(nn4c1CCC4)CSC2)NCCC3 (atropisomer, axis not shown; (Sa)) [Example 1B, (Sa)-(−)-(Z)-1^6-Chloro-1^1,6^1-dimethyl-2^5,2^6,9^1,9^2,9^3,9^4-hexahydro-1^1H,2^4H,6^1H-10-oxa-4,8-dithia-9(6,8)-quinolina-1(7,3)-indola-2(3 ,2)-pyrrolo[1,2-b]pyrazola-6(3,5)-pyrazolacyclotridecaphane-1^2-carboxylic acid] | – | ≥ 1000 nM
CN1Cc2cc(n(C)n2)CSc2cc3c(c(c2)OCCCc2c(C(=O)O)n(C)c4c(c(Cl)ccc24)-c2c(nn4c2CCCC4)C1)NCCC3 (atropisomer, axis not shown; (Ra)) [Example 4A, (Ra)-(+)-(Z)-1^6-Chloro-1^1,6^1,4-trimethyl-2^4,2^5,2^6,2^7,9^1,9^2,9^3,9^4-octahydro-1^1H,6^1H-10-oxa-8-thia-4-aza-9(6,8)-quinolina-2(3,2)-pyrazolo[1,5-a]pyridina-1(7,3)-indola-6(3,5)-pyrazolacyclotridecaphane-1^2-carboxylic acid] | ≥ 1000 nM | –
Cn1nc2cc1CSc1cc3c(c(c1)OCCCc1c(C(=O)O)n(C)c4c(c(Cl)ccc14)-c1c(nn4c1CCCC4)CNC2)NCCC3 (atropisomer, axis not shown; (Ra)) [Example 12A, (Ra)-(+)-(Z)-1^6-Chloro-1^1,6^1-dimethyl-2^4,2^5,2^6,2^7,9^1,9^2,9^3,9^4-octahydro-1^1H,6^1H-10-oxa-8-thia-4-aza-9(6,8)-quinolina-2(3,2)-pyrazolo[1,5-a]pyridina-1(7,3)-indola-6(3,5)-pyrazolacyclotridecaphane-1^2-carboxylic acid] | ≥ 1000 nM | –
Cn1nc2cc1CSc1cc3c(c(c1)OCCCc1c(C(=O)O)n(C)c4c(c(F)ccc14)-c1c(nn4c1CCC4)CSC2)NCCC3 (atropisomer, axis not shown; (Ra)) [Example 7A, (Ra)-(+)-(Z)-1^6-Fluoro-1^1,6^1-dimethyl-2^5,2^6,9^1,9^2,9^3,9^4-hexahydro-1^1H,2^4H,6^1H-10-oxa-4,8-dithia-9(6,8)-quinolina-1(7,3)-indola-2(3,2)-pyrrolo[1,2-b]pyrazola-6(3,5)-pyrazolacyclotridecaphane-1^2-carboxylic acid] | – | 100 to 1000 nM
Cn1nc2cc1CSc1cc3c(c(c1)OCCCc1c(C(=O)O)n(C)c4c(c(F)ccc14)-c1c(nn4c1CCCC4)CSC2)NCCC3 (atropisomer, axis not shown; (Ra)) [Example 8A, (Ra)-(+)-(Z)-1^6-Fluoro-1^1,6^1-dimethyl-2^4,2^5,2^6,2^7,9^1,9^2,9^3,9^4-octahydro-1^1H,6 ^1H-10-oxa-4,8-dithia-9(6, 8)-quinolina-2(3,2)-pyrazolo[1,5-a]pyridina-1(7,3)-indola-6(3,5)-pyrazolacyclotridecaphane-1^2-carboxylic acid] | ≥ 1000 nM | –

Second part, the compound after the results:

IC50 | IC50 (Homo sapiens, NCI-H929, 72 h) | Compound
≤ 100 nM | – | CCn1nc(C)c2c1CSCc1cc(n(C)n1)CSc1cc3c(c(c1)OCCCc1c(C(=O)O)n(C)c4c-2c(Cl)ccc14)NCCC3 (atropisomer, axis not shown; (Ra)) [Example 14A, (Ra)-(+)-(Z)-1^6-Chloro-2^1-ethyl-1^1,2^3,6^1-trimethyl-9^1,9^2,9^3,9^4-tetrahydro-1^1H,2^1H,6^1H-10-oxa-4,8-dithia-9(6,8)-quinolina-1(7,3)-indola-2(4,5),6(3,5)-dipyrazolacyclotridecaphane carboxylic acid]
≤ 100 nM | – | Cc1nn(C23CC(C2)C3)c2c1-c1c(Cl)ccc3c(c(C(=O)O)n(C)c13)CCCOc1cc(cc3c1NCCC3)SCc1cc(nn1C)CSC2 (atropisomer, axis not shown; (Sa)) [Example 9B, (Sa)-(−)-(Z)-2^1-(Bicyclo[1.1.1]pentan-1-yl)-1^6-chloro-1^1,2^3,6^1-trimethyl-9^1,9^2,9^3,9^4-tetrahydro-1^1H,2^1H,6^1H-10-oxa-4,8-dithia-9(6,8)-quinolina-1(7,3)-indola-2(4,5),6(3,5)-dipyrazolacyclotridecaphane-1^2-carboxylic acid]
≤ 100 nM | – | CN1Cc2cc(n(C)n2)CCc2cc3c(c(c2)OCCCc2c(C(=O)O)n(C)c4c(c(Cl)ccc24)-c2c(nn4c2CCC4)C1)NCCC3 (atropisomer, axis not shown; (Ra)) [Example 5A, (Ra)-(+)-(Z)-1^6-Chloro-1^1,6^1,4-trimethyl-2^5,2^6,9^1,9^2,9^3,9^4-hexahydro-1^1H,2^4H,6^1H-10-oxa-4-aza-9(6,8)-quinolina-1(7,3)-indola-2(3,2)-pyrrolo[1,2-b]pyrazola-6(3,5)-pyrazolacyclotridecaphane-1^2-carboxylic acid]
≤ 100 nM | – | CN1Cc2cc(n(C)n2)CCc2cc3c(c(c2)OCCCc2c(C(=O)O)n(C)c4c(c(Cl)ccc24)-c2c(nn4c2CCCC4)C1)NCCC3 (atropisomer, axis not shown; (Ra)) [Example 6A, (Ra)-(+)-(Z)-1^6-Chloro-1^1,6^1,4-trimethyl-2^4,2^5,2^6,2^7,9^1,9^2,9^3,9^4-octahydro-1^1H,6^1H-10-oxa-4-aza-9(6,8)-quinolina-2(3,2)-pyrazolo[1,5-a]pyridina-1(7,3)-indola-6(3,5)-pyrazolacyclotridecaphane-1^2-carboxylic acid]
≤ 100 nM | – | CN1Cc2cc(n(C)n2)CSc2cc3c(c(c2)OCCCc2c(C(=O)O)n(C)c4c(c(Cl)ccc24)-c2c(nn4c2CCC4)C1)NCCC3 (atropisomer, axis not shown; (Sa)) [Example 3B, (Sa)-(−)-(Z)-1^6-Chloro-1^1,6^1,4-trimethyl-2^5,2^6,9^1,9^2,9^3,9^4-hexahydro-1^1H,2^4H,6^1H-10-oxa-8-thia-4-aza-9(6,8)-quinolina-1(7,3)-indola-2(3,2)-pyrrolo[1,2-b]pyrazola-6(3,5)-pyrazolacyclotridecaphane-1^2-carboxylic acid]
≤ 100 nM | – | Cc1nn(C23CC(C2)C3)c2c1-c1c(F)ccc3c(c(C(=O)O)n(C)c13)CCCOc1cc(cc3c1NCCC3)SCc1cc(nn1C)CSC2 (atropisomer, axis not shown; (Sa)) [Example 10B, (Sa)-(−)-(Z)-2^1-(Bicyclo[1.1.1]pentan-1-yl)-1^6-fluoro-1^1,2^3,6^1-trimethyl-9^1,9^2,9^3,9^4-tetrahydro-1^1H,2^1H,6^1H-10-oxa-4,8-dithia-9(6,8)-quinolina-1(7,3)-indola-2(4,5),6(3,5)-dipyrazolacyclotridecaphane-1^2-carboxylic acid]
100 to 1000 nM | – | Cn1nc2cc1CSc1cc3c(c(c1)OCCCc1c(C(=O)O)n(C)c4c(c(F)ccc14)-c1c(nn4c1CCCC4)CSC2)NCCC3 (atropisomer, axis not shown; (Sa)) [Example 8B, (Sa)-(−)-(Z)-1^6-Fluoro-1^1,6^1-dimethyl-2^4,2^5,2^6,2^7,9^1,9^2,9^3,9^4-octahydro-1^1H,6^1H-10-oxa-4,8-dithia-9(6, 8)-quinolina-2(3,2)-pyrazolo[1,5-a]pyridina-1(7,3)-indola-6(3,5)-pyrazolacyclotridecaphane-1^2-carboxylic acid]
100 to 1000 nM | – | Cn1nc2cc1CSc1cc3c(c(c1)OCCCc1c(C(=O)O)n(C)c4c(c(Cl)ccc14)-c1c(nn4c1CCCC4)CNC2)NCCC3 (atropisomer, axis not shown) [Example 12B, (Sa)-(−)-(Z)-1^6-Chloro-1^1,6^1-dimethyl-2^4,2^5,2^6,2^7,9^1,9^2,9^3,9^4-octahydro-1^1H,6^1H-10-oxa-8-thia-4-aza-9(6,8)-quinolina-2(3,2)-pyrazolo[1,5-a]pyridina-1(7,3)-indola-6(3,5)-pyrazolacyclotridecaphane-1^2-carboxylic acid]
≤ 100 nM | – | CN1Cc2cc(n(C)n2)CSc2cc3c(c(c2)OCCCc2c(C(=O)O)n(C)c4c(c(Cl)ccc24)-c2c(nn4c2CCCC4)C1)NCCC3 (atropisomer, axis not shown; (Sa)) [Example 4B, (Sa)-(−)-(Z)-1^6-Chloro-1^1,6^1,4-trimethyl-2^4,2^5,2^6,2^7,9^1,9^2,9^3,9^4-octahydro-1^1H,6^1H-10-oxa-8-thia-4-aza-9(6,8)-quinolina-2(3,2)-pyrazolo[1,5-a]pyridina-1(7,3)-indola-6(3,5)-pyrazolacyclotridecaphane-1^2-carboxylic acid]
